These compounds were tested against dipeptidyl peptidase IV (Homo sapiens, UniProt P27487) (assay: biochemical). Conditions: values marked with "*" are ID50 values; read-out: IC50DPIV, values marked with "*" = ID50.
Sequence of dipeptidyl peptidase IV (P27487 whole entry, species assumed): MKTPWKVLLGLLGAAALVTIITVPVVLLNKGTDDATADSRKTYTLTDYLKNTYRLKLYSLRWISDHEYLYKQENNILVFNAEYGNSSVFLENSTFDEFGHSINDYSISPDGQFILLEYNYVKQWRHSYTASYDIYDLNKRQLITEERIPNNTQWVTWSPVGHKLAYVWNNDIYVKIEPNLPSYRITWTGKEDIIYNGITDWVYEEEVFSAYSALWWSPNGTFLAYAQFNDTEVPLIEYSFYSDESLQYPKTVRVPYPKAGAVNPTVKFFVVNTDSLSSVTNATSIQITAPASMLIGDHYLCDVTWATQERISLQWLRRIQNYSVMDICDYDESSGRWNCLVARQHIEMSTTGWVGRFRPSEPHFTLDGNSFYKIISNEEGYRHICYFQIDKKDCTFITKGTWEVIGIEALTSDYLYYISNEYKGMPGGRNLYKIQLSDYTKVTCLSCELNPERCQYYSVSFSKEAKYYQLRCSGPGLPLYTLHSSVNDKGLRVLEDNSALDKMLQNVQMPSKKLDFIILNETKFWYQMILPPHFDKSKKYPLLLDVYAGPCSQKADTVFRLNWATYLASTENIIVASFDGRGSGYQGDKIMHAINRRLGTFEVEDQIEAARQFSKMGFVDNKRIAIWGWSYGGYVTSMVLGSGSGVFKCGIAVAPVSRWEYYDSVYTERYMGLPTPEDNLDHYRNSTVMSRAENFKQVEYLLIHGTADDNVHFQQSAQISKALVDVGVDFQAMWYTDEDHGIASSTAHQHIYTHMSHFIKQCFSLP

In order of falling IC50:
1. Cc1ccccc1NC(=O)C(=O)N/N=C/c1cccc(Cl)c1 [D10.144]  775 µM
2. O=C(N/N=C/c1cccc(OC(=O)c2ccccc2Cl)c1)/C(=C\c1ccc2c(c1)OCO2)NC(=O)c1ccccc1 [D10.143]  656 µM
3. COc1cccc(/C=N/NC(=O)c2ccc(OCc3cccc(Br)c3)cc2)c1OC [D10.140]  458 µM
4. CCN(CC)c1ccc(/C=C(/NC(=O)c2ccccc2)C(=O)N/N=C/c2ccc(-c3ccc([N+](=O)[O-])cc3)o2)cc1 [D10.138]  418 µM
5. Nc1nc2ccc(S(=O)(=O)c3ccc4nc(N)sc4c3)cc2s1 [D3.118]  417 µM
6. Nc1ccc(C(=O)NNC(=O)c2ccc(N3C(=O)c4ccc(C(=O)NNC(=O)c5ccc([N+](=O)[O-])cc5)cc4C3=O)cc2)cc1 [D3.117]  402 µM
7. CN(C)c1ccc(C2C3C(=O)N(c4ccccc4)C(=O)C3ON2c2ccc(Cl)cc2)cc1 (stereo not shown) [D13.007]  344 µM
8. Cc1cc(C(=O)N/N=C\c2c[nH]c3ccccc23)c(C)o1 [D10.136]  340 µM
9. Nc1nonc1-n1nnc(C(=O)N/N=C/c2ccccc2Br)c1-c1ccc([N+](=O)[O-])cc1 [D10.135]  314 µM
10. COc1ccc(/C=N/NC(=O)C(=O)Nc2ccc(Cl)cc2C)c(OC)c1 [D10.134]  275 µM
11. CCCc1c(C)nc(N)c(C#N)c1-c1ccccc1 [D4.104]  255 µM
12. COc1cc(/C=N/NC(=O)c2ccccc2[N+](=O)[O-])cc(OC)c1OC [D10.128]  241 µM
13. CN(Cc1ccccc1)c1ccc(N2C(=O)CCCC2=O)cc1[N+](=O)[O-] [D4.101]  231 µM
14. COc1ccc2nc(NC(=O)COC(=O)CN3C(=O)c4ccccc4C3=O)sc2c1 [D3.103]  224 µM
15. COc1ccc(OCC(=O)N/N=C/c2ccc(OC)c(Br)c2)c(Br)c1 [D10.120]  197 µM
16. O=C(COc1c(O)cc(Br)cc1Br)N/N=C/c1ccc(O)c(O)c1 [D10.119]  177 µM
17. COc1ccc(/C=C(\NC(=O)c2ccccc2)C(=O)N/N=C/c2ccc(OC)c(COc3ccc(C(=O)OCC(C)C)cc3)c2)cc1 [D10.117]  166 µM
18. O=C(N/N=C/c1ccc(O)c(O)c1)c1cccc([N+](=O)[O-])c1 [D10.111]  116 µM
19. CC1=C(C(=O)Nc2ccccc2)C(c2ccccc2Cl)c2c(sc(C(=O)c3ccc(Cl)cc3)c2N)N1 (stereo not shown) [D3.093]  112 µM
20. CCOC(=O)CC(N)c1ccc(OC)cc1 (stereo not shown) [D13.006]  83.3 µM
21. CC(C)(C)c1cc2oc3c(c2c(/C=N/NC(=O)c2ccc(O)cc2O)c1O)CCCC3 [D10.097]  74.7 µM
22. O=C(Cn1c2ccccc2c(=O)c2ccccc21)N/N=C/c1ccc(O)c(O)c1 [D10.092]  63.5 µM
23. O=C(Nc1cccc(/N=C/c2cc(/N=N\c3ccccc3Cl)ccc2O)c1)c1ccco1 [D11.001]  2.5 µM
24. CN(C)c1ccc(N2CC(C)(C)C2=O)cc1 [D1.001]  1.2 µM

Same assay, conditions: values without "*" = IC-50; read-out: IC50DPIV

In order of rising IC50:
1. CCC(O)(CC)C(=O)NNc1ccccc1C [D14.003]  5.7 µM
2. CC(=O)N(C(C)=O)c1nc(-c2ccccc2)cn1/N=C/c1ccccc1 [D10.011]  9.9 µM
3. Nc1nonc1-n1nnc(C(=O)NN=C2c3ccccc3-c3ccccc32)c1-c1ccccc1 [D6.013]  10.1 µM
4. Cc1cccc(-n2c(=O)c3c4c(sc3n3c(SC(C)C(=O)N5CCOCC5)nnc23)COC(C(C)C)C4)c1 (stereo not shown) [D3.012]  10.1 µM
5. O=C(COc1cccc(Br)c1)N/N=C/c1cc(O)c(O)c(Br)c1Br [D10.014]  11.4 µM
6. COc1ccc(/C=N/NC(=O)c2cc(O)c(O)c(O)c2)cc1COc1cc(C)c(Cl)c(C)c1 [D10.016]  12.3 µM
7. O=C(CCCCC(=O)N/N=C/c1ccccc1[N+](=O)[O-])N/N=C/c1ccccc1[N+](=O)[O-] [D10.020]  12.8 µM
8. CCOc1cc(/C=N/NC(=O)c2cc(C)n[nH]2)ccc1O [D10.023]  13.6 µM
9. Cc1csc(/C(=N\OC(=O)c2ccc(Br)o2)C(N)=O)n1 [D11.003]  14 µM
10. O=C1c2ccccc2-c2c1[n+]([O-])c1c([n+]2[O-])CCCC1 [D3.017]  14 µM
11. CCCn1c(N2CCN(CC(=O)c3c(C)n(C)c4ccccc34)CC2)nc2c1c(=O)[nH]c(=O)n2C [D6.019]  15.2 µM
12. CCCC(=O)O/N=C1/C(=O)N(c2ccccc2)c2ccccc21 [D11.006]  15.2 µM
13. Cc1ccccc1N1C(=O)c2sc3nc4c(c(=O)n3c2C1=O)CCC4 [D3.020]  15.2 µM
14. O=C(NCc1ccco1)C(=O)Nc1ccc(Br)cc1 [D6.021]  16.1 µM
15. Cn1c(=O)c2c(nc(NCCCCO)n2Cc2ccccc2Cl)n(C)c1=O [D12.002]  16.2 µM
16. O=C(N/N=C/c1ccc(-c2ccc(Cl)cc2)o1)/C(=C/c1ccc([N+](=O)[O-])cc1)NC(=O)c1ccccc1 [D10.026]  16.4 µM
17. Cc1ccc(OCC(=O)N/N=C\c2ccc(O)c([N+](=O)[O-])c2)c([N+](=O)[O-])c1 [D10.030]  17.8 µM
18. CC(C)C1Cc2c(sc3c2c(=O)n(Cc2ccccc2)c2nnc(SCC(=O)O)n32)CO1 (stereo not shown) [D3.024]  18.9 µM
19. CCOc1cc(/C=N/NC(=O)COc2ccc(Cl)cc2)ccc1OC(=O)c1ccc(Br)cc1 [D10.035]  20 µM
20. O=C(Cn1nnc(-c2ccc(F)cc2)n1)N/N=C/c1ccc(-c2ccc3c(c2)COC3=O)o1 [D10.036]  20.3 µM
21. CN(C)c1ccc(C2C=C(Nc3ccccc3)C(=O)N2c2ccccc2)cc1 (stereo not shown) [D12.006]  20.4 µM
22. NS(=O)(=O)c1ccc(N2C(=O)CCCC2=O)cc1 [D4.030]  21 µM
23. COCC(=O)CC(N)c1ccc(C)cc1 (stereo not shown) [D13.002]  23.3 µM
24. Nc1ccc2c(c1)C/C(=C\c1ccco1)C2=O [D3.070]  27.5 µM
25. COc1cc(Br)c(OCC(=O)N/N=C/c2cc(Br)c(O)c(O)c2Br)c(Br)c1 [D10.046]  29.2 µM
26. COc1ccc(Cl)cc1N1C(=O)CSCC1=O [D4.041]  30.7 µM
27. CCCC(=O)Oc1ccc(N(C(=O)CCC)S(=O)(=O)c2cccs2)cc1 [D9.004]  31.3 µM
28. CC(=O)Oc1ccc(-c2ccc(/C=N/NC(=O)C34CC5CC(C3)CC(c3ccc(C)cc3)(C5)C4)cc2)cc1 [D10.052]  32.9 µM
29. Cc1ccc(C(=O)C2(C)N(O)C(C)C(c3cccs3)=[N+]2[O-])cc1 (stereo not shown) [D6.053]  34.1 µM
30. O=C1NCCCCC1Nc1ccc(N2C(=O)CCCC2=O)cc1[N+](=O)[O-] (stereo not shown) [D5.026]  34.1 µM
31. CCOC(=O)c1c(C)oc2c1c1c(c3ccccc32)OCN(C2CCS(=O)(=O)C2)C1 (stereo not shown) [D9.006]  34.2 µM
32. COc1ccc(/C=N/N=C2\NC(=O)C(Cc3cccc(C(F)(F)F)c3)S2)cc1 (stereo not shown) [D10.058]  34.2 µM
33. O=C(N/N=C/c1cccc(I)c1)c1cc(Br)ccc1O [D10.060]  36.3 µM
34. CCOC(=O)c1cn(-c2ccc(N3C(=O)CSCC3=O)cc2)nc1C [D6.056]  37.4 µM
35. O=C(Nc1c[nH]c(=O)[nH]c1=O)c1ccc2c(c1)C(=O)N(c1ccc(C(=O)c3ccccc3)cc1)C2=O [D3.048]  38.2 µM
36. N#Cc1c(NC(=O)C(C(F)(F)F)C(F)(F)F)sc2c1CCCC2 [D3.049]  39.5 µM
37. O=C1c2ccccc2C(=O)N1c1cccc(-c2csc(N3N=C(c4cccc([N+](=O)[O-])c4)CC3c3ccc(F)cc3)n2)c1 (stereo not shown) [D3.050]  39.8 µM
38. COC(=O)C1=C2SCC(=O)N2C(N)=C(C#N)C1 [D3.052]  40.5 µM
39. CCc1c(C)[nH]c2c1/C(=N/OC(=O)C(C)C)CCC2 [D11.010]  43.8 µM
40. COC(=O)O/N=C(/N)c1nonc1N [D11.011]  44.3 µM
41. Cc1nc2c(sc(=S)n2C)c(=O)[nH]1 [D3.061]  46 µM
42. CCOP(=O)(CC(=O)N1CCN(C(=O)Nc2cccc(Br)c2)C1C(=O)NCc1cccc(CN)c1)OCC (stereo not shown) [D9.008]  46.3 µM
43. Cc1ccc(C(=O)N/C(=C/c2ccco2)C(=O)N(C)C)cc1 [D12.038]  47.7 µM
44. O=C(Cn1c2ccccc2c(=O)c2ccccc21)N/N=C/c1cc(I)c(O)c([N+](=O)[O-])c1 [D10.073]  52.3 µM
45. CC(C)(C)CC(C)(C)c1ccc(OCC(=O)N/N=C/c2ccc(OC(=O)c3ccco3)c([N+](=O)[O-])c2)cc1 [D10.074]  52.9 µM
46. CCN(CC)C(=O)C1CCCN(c2ccc([N+](=O)[O-])cc2/C=N/NC(=O)c2cccc([N+](=O)[O-])c2)C1 (stereo not shown) [D10.075]  54 µM
47. CCOC(=O)c1c(N2C(=O)C3ON(c4ccccc4)C(c4ccc([N+](=O)[O-])cc4)C3C2=O)sc2c1CCCC2 (stereo not shown) [D3.069]  54.1 µM
48. CCOC(=O)c1n[nH]c2c1CN(c1ccc([N+](=O)[O-])cc1)C2=O [D12.031]  54.5 µM
49. O=C(N/N=C/C=C/c1ccccc1)c1cc(C2CC2)n[nH]1 [D10.076]  55 µM
50. CCOc1cccc(/C=N/NC(=O)c2cc(-c3ccc(F)cc3)n[nH]2)c1O [D10.078]  55.3 µM
51. COc1cc(C(=O)Oc2c(Br)cc(Br)cc2/C=N/NC(=O)COc2ccc(C)cc2)cc(OC)c1OC [D10.082]  55.9 µM
52. CCOC(=O)c1cc(-c2ccc(/C=C3/C(=O)NC(=O)C(C#N)=C3C)o2)ccc1Cl [D4.069]  56.7 µM
53. CCOC(=O)c1cc(-c2ccc(/C=C3/C(=O)NC(=O)C(C#N)=C3C)o2)ccc1Cl [D6.082]  56.7 µM
54. Cc1cccc(C)c1OCC(=O)N/N=C/c1cc(Br)cc(Br)c1OC(=O)c1ccccc1I [D10.084]  57 µM
55. COc1ccc(C(=O)N/N=C/c2cc(O)c(O)c(Br)c2Br)cc1 [D10.086]  57.8 µM
56. CC1CCc2c(sc(NC(=O)C(C(F)(F)F)C(F)(F)F)c2C#N)C1 (stereo not shown) [D6.083]  59.8 µM
57. Cn1cnnc1SCC(=O)OCN1C(=O)c2ccccc2C1=O [D3.083]  62.4 µM
58. CCCOC(=O)c1cc(-c2ccc(/C=C3\C(=O)NC(=O)C(C#N)=C3C)o2)ccc1Cl [D12.034]  65.3 µM
59. CCOc1cc(/C=N/NC(=O)c2cc(-c3ccco3)n[nH]2)ccc1O [D10.099]  84.9 µM
60. O=C(CNC(=O)C(c1ccccc1)c1ccccc1)N/N=C/c1ccc(OC(=O)c2cccc(F)c2)cc1 [D10.103]  93.3 µM
61. O=C1CSCC(=O)N1c1ccc(F)cc1 [D4.086]  94.5 µM
62. CC1=C(C#N)C(=O)N=C(O)/C1=C\c1ccc(-c2ccc(Cl)cc2Cl)o1 [D4.087]  95.8 µM
63. CC1=C(C#N)C(=O)N=C(O)/C1=C\c1ccc(-c2ccc(Cl)cc2Cl)o1 [D6.101]  95.8 µM
64. CC(C)(C)C1CCc2c(sc(NC(=O)C(C(F)(F)F)C(F)(F)F)c2C#N)C1 (stereo not shown) [D3.092]  101 µM

Reference: patent US20070037785A1, “Novel dipeptidyl peptidase IV inhibitors used for functionally influencing different cells and treating immunological, infammatory, neuronal, and other diseases” (priority 2003, published 2007)
